Patent US12595231B2 (priority 2022, dated 2026)
Like-named read-outs stand apart in the source and are kept apart here.

What was measured:
[1] = salt hydration study in methanol/water of known water activity; type: physicochemical; settings: 25° C.; for Observation: 24 h; for Solubility: methanol/water, all levels of water activity (aw 0.2, 0.5, 0.8)
Protocol: Approximately 20 mg of the hydrochloride (HCl), besylate and fumarate salts were weighed into 3×2 mL push cap vials. 0.05-0.1 mL of relevant solvent system was added to each vial, at 25° C.
Methanol/water solvent systems (99:1, 75:25, 33:67) of known water activity (aw 0.2, 0.5 and 0.8 respectively) were used. The experiment was stirred for ca. 24 h. After 24 h, any slurries were centrifuged, and the solids analysed by XRPD.
An additional hydration study was required in order to repeat the salt hydration studies, for the HCl salt and the besylate salt due to dissolution in the first set of experiments:
For each salt, approximately 10 mg was weighed into 4×2 mL vials and a stirrer bar added. 10 μL of each solvent system was added, at 25° C. The experiments were stirred for 24 h, and any solids recovered were then analysed by XRPD.

[2] = DVS analysis (water uptake); type: physicochemical; settings: for hygroscopicity: from DVS water uptake at 80% RH
[3] = primary salt formation assessment: solution degradation (HPLC of mother liquor); type: physicochemical; settings: salt formation experiment
Protocol: HPLC analysis was carried out to determine the chemical purity of the mesembrine and to provide information on any impurities. The following conditions were use: • Column: Waters Acquity BEH 018 1.7 μm 150 mm×2.1 mm • Column Temperature: 33° C. • Autosampler Temperature: 25° C. • UV Wavelength: 280 nm • Injection Volume: 5 μL • Flow Rate: 0.29 mL/min • Mobile Phase A: 0.1% NH4 in H2O • Mobile Phase B: Methanol:Water 20:80% v/v • Gradient Program: […]
The experiments were then temperature cycled between the upper temperature limit (specified in Table 3.1) and 5° C. at 0.1° C./min, with 1 h holds at the upper temperature limit, and 5° C. for ca. 72 h.
After temperature cycling, solids were isolated from experiments at 5° C., and analysed by XRPD.

[4] = type: physicochemical; settings: for HPLC Conc.: 25° C., 24 h, with respect to mesembrine; for HPLC Purity: solution/mother liquor
Protocol: Approximately 20 mg of each salt was weighed into 3×2 mL push cap vials. 0.1 mL of buffer (Chloride pH 1.2; Acetate pH 4.5; Phosphate pH 6.8) was added to each vial, at 25° C. The experiment was stirred for ca. 24 h. After 2 h, the pH was measured and adjusted if required. After 24 h a final pH measurement was taken. Any slurries were centrifuged and the solids analysed by XRPD.

[5] = primary salt formation assessment: storage at 40° C./75% RH for ca. 24 h, XRPD; type: physicochemical; settings: solids stored at 40° C./75% RH for ca. 24 h
Protocol: Solids were dried at 40° C. under vacuum for ca. 24 h, and then re-analysed by XRPD.
Solids were then stored at 40° C./75% RH for ca. 24 h, and then re-analysed by XRPD.

1-week stability study = type: physicochemical; settings: for Observation: Sigma Aldrich colour chart
Protocol: A 1-week stability study was performed for hydrochloride salt Pattern 1, besylate salt Pattern 1, fumarate salt Pattern 1+4, and fumarate salt Pattern 4.
Approximately 5 mg of the salt was weighed into 3×2 mL push cap vials. The 2 mL vials were then each placed inside a 20 mL vial, with the lids on or off as required. The solids were placed under the required stability conditions for 1 week at the following three conditions: 40° C./75% RH (open); 80° C. (closed); Ambient light, temperature and humidity (open)
After 1-week, visual observations were noted, then the solids were analysed by XRPD and HPLC.

[6] = VH-XRPD analysis (variable humidity); type: physicochemical
[7] = HCl salt, background statement; cited from earlier work
5-HT transporter = 5-HT transporter (Homo sapiens, UniProt P31645); settings: Harvey et al., 2011; cited from earlier work
PDE4B = PDE4B (Homo sapiens, UniProt Q07343); settings: Harvey et al., 2011; cited from earlier work
[8] = 200 mg/mL, water activity aw 0.2 (methanol/water 99:1)
[9] = 400 mg/mL, water activity aw 0.5 (methanol/water 75:25)
[10] = 1000 mg/mL, water activity aw 0.2 (methanol/water 99:1)
[11] = 1000 mg/mL, water activity aw 0.5 (methanol/water 75:25)
[12] = 1000 mg/mL, water activity aw 0.8 (methanol/water 33:67)
[13] = Target pH 1.2 (chloride buffer)
[14] = Target pH 1.2, ca. 20 mg in 0.1 mL buffer
[15] = Target pH 4.5, ca. 20 mg in 0.1 mL buffer
[16] = Target pH 6.8 (phosphate buffer)
[17] = Target pH 6.8, ca. 20 mg in 0.1 mL buffer
[18] = Ambient light, temperature and humidity, 1 week
[19] = 200 mg/mL, water activity aw 0.8 (methanol/water 33:67)

Sequence of 5-HT transporter (P31645 whole entry, species assumed): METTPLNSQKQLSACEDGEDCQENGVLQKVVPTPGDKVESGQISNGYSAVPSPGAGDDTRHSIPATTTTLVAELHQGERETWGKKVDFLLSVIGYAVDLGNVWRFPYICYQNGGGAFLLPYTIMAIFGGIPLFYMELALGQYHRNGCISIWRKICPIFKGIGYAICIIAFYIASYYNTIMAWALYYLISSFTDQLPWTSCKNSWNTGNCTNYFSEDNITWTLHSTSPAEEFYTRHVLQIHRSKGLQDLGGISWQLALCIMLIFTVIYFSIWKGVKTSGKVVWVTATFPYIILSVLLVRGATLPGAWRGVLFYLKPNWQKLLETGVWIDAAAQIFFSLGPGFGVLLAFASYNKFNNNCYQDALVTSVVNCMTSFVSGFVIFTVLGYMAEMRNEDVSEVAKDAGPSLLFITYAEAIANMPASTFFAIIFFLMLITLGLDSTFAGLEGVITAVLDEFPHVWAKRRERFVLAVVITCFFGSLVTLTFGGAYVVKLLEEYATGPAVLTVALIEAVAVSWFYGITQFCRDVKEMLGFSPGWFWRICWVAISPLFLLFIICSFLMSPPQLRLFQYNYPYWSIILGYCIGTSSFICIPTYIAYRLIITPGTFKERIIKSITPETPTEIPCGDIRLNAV
Sequence of PDE4B (Q07343 whole entry, species assumed): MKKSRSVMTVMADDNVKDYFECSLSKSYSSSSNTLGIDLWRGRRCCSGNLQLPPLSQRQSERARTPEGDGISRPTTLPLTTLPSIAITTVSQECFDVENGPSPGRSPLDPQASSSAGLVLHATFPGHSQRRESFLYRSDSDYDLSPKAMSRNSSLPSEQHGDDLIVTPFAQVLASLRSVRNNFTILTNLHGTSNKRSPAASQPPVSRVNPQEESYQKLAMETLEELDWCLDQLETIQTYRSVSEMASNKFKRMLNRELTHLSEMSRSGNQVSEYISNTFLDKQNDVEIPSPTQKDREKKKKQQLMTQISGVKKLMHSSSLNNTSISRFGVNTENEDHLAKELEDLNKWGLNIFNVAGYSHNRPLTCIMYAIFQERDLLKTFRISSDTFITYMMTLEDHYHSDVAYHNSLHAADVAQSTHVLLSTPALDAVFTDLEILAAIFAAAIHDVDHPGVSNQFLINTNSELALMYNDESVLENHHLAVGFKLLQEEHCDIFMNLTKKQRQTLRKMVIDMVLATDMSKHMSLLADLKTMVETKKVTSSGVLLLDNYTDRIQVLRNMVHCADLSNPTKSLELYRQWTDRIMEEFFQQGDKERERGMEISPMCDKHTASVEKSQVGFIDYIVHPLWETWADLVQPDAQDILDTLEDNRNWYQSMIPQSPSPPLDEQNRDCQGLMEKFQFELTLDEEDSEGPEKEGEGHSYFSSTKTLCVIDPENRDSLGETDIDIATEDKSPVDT

Row | Structure (SMILES) | DVS water uptake ([2]; 80% RH, 25° C.) [wt %] | hygroscopicity ([2]; 25° C.) | HPLC Conc. [4, 13] [mg/mL] | Observation [4, 14] | HPLC Conc. ([4]; Target pH 4.5 (acetate buffer)) [mg/mL] | Observation [4, 15] | HPLC Conc. [4, 16] [mg/mL] | Observation [4, 17] | HPLC Purity ([4]; Target pH 1.2, 24 h) [% area] | HPLC Purity ([4]; Target pH 4.5, 24 h) [% area] | HPLC Purity ([4]; Target pH 6.8, 24 h) [% area] | HPLC (1-week stability study; 40° C./75% RH (open), 1 week) [% area] | XRPD (pattern number) (1-week stability study; 40° C./75% RH (open), 1 week) | Observation (1-week stability study; 40° C./75% RH (open), 1 week) | HPLC (1-week stability study; 80° C. (closed), 1 week) [% area] | XRPD (pattern number) (1-week stability study; 80° C. (closed), 1 week) | Observation (1-week stability study; 80° C. (closed), 1 week) | HPLC (1-week stability study; [18]) [% area] | XRPD (pattern number) (1-week stability study; [18]) | Observation (1-week stability study; [18]) | also measured
1 | COc1ccc(C23CCC(=O)CC2N(C)CC3)cc1OC.O=S(=O)(O)c1ccccc1 (stereo not drawn) [Besylate Pattern 1, mesembrine besylate] | 2.3 | hygroscopic | >172 | Clear solution | >140 | Clear solution | >97 | Clear solution | 98.01 | 98.02 | 97.62 | 98.0 | 1, | Light brown solids (BR8) | 96.7 | 1, | Faint beige solids (BE10) | 98.1 | 1, | Faint beige solids (BE10) | Observation [1, 8]: Clear solution; Observation [1, 9]: Clear solution; Observation ([1]; 400 mg/mL, water activity aw 0.8 (methanol/water 33:67)): Clear solution; Observation [1, 10]: Clear solution; Observation [1, 11]: Clear solution; Observation [1, 12]: Clear solution; Solubility ([1]; listed as besylate salt): greater than 1000 mg/mL; Solubility ([1]; listed as besylate salt Pattern 1): > 1000 mg/mL; DVS water uptake ([2]; 90% RH): 13 wt %; solution degradation (Comments) [3]: degradation; physical stability at 40° C./75% RH (Comments) [5]: physically stable; HPLC (1-week stability study; Input): 98.1 % area; XRPD (pattern number) (1-week stability study; Input): 1,; Observation (1-week stability study; Input): Faint beige solids (BE10); solid form by VH-XRPD ([6]; after 17 h at 90% RH): persisted
2 | COc1ccc(C23CCC(=O)CC2N(C)CC3)cc1OC.O=C(O)C=CC(=O)O (stereo not drawn) [Fumarate Pattern 1 + 4, mesembrine fumarate] | 0.7 | slightly hygroscopic | 29.44 | Slurry | >24 | Clear solution | 18.98 | Oil | 96.31 | 96.07 | 96.78 | 95.6 | 1/4, | Faint beige solids (BE10 | 83.4 | 6, | Light brown solids (BR8) | 96.1 | 1/4, | Faint beige solids (BE10 | Observation [1, 19]: Thick slurry; Observation ([1]; 400 mg/mL, water activity aw 0.2 (methanol/water 99:1)): Thick slurry; Observation [1, 9]: Slurry; DVS water uptake ([2]; between 0-20% RH): 2.1 wt %; HPLC (1-week stability study; Input): 96.6 % area; XRPD (pattern number) (1-week stability study; Input): 1/4,; Observation (1-week stability study; Input): Faint beige solids (BE10); solid form by VH-XRPD ([6]; at 0% RH): fumarate Pattern 5
3 | COc1ccc(C23CCC(=O)CC2N(C)CC3)cc1OC.Cl (stereo not drawn) [Hydrochloride Pattern 1, reference compound] | 5.4 | hygroscopic | >105 | Clear solution | >146 | Clear solution | >122 | Clear solution | 97.09 | 93.45 | 92.87 | 93.4 | 1, | Light brown solids (BR8) | 92.8 | 1, | Light brown solids (BR8) | 91.5 | 1, | Faint beige solids (BE10) | Observation [1, 8]: Clear solution; Observation ([1]; 200 mg/mL, water activity aw 0.5 (methanol/water 75:25)): Clear solution; Observation [1, 19]: Clear solution; Observation [1, 10]: Clear solution; Observation [1, 11]: Slurry; Observation [1, 12]: Slurry; DVS water uptake ([2]; 90% RH): 20.3 wt %; solution degradation (Comments) [3]: degradation; physical stability at 40° C./75% RH (Comments) [5]: physically stable; HPLC (1-week stability study; Input): 90.5 % area; XRPD (pattern number) (1-week stability study; Input): 1,; Observation (1-week stability study; Input): Faint beige solids (BE10); Solubility [7]: poorly soluble at higher concentrations; solid form by VH-XRPD ([6]; after 12 h at 90% RH): remained consistent with hydrochloride salt Pattern 1
4 | COc1ccc(C23C=CC(O)CC2N(C)CC3)cc1OC (stereo not drawn) [mesembrenol] |  |  |  |  |  |  |  |  |  |  |  |  |  |  |  |  |  |  |  |  | activity in a 5-HT transporter binding assay (5-HT transporter): potently active; activity against PDE4B activity (PDE4B): potently active
